# Measurements as given in patent publication US20070117864A1, “Composition for preventing and treating hepatoma” (Tokyo University of Agr. & Tech. TLO Co., Ltd., priority 2003, published 2007).
# Marks after values point to notes of the source that are not given here.
# Key:
# AH109A cells = experiment: in vitro invasion assay of AH109A cells beneath mesothelial cell (M-cell) monolayer; type: cell-based, rat
# Description: The tumor invasion activity was measured using a partially modified version (Miura Y., Shiomi H., Sakai F., and Yagasaki K. 1997 Assay systems for screening food components that have anti-proliferative and anti-invasive activity to rat ascites hepatoma cells: In vitro and ex vivo effects of green tea extract. Cytotechnology 23: 127-132) of the in vitro invasion assay method of Akedo et al (Akedo H, Shinkai K, Mukai M, Mori Y, Tateishi R, Tanaka K, Yamamoto R, Morishita T. Interaction of rat ascites hepatoma cells with cultured mesothelial cell layers: a model for tumor invasion. Cancer Res. 1986 May; 46(5):2416-22).
# Mesothelial cells (M-cells) directly prepared from rat mesenteries to culture were cultured for 7 to 10 days until a confluent monolayer was formed, and subsequently, the medium was changed to 3 ml of the respective experimental media. AH109A cells were overlayed onto the mesothelial cells at the density of 2.4×10^4 cells, and were gently agitated, and were cultured in a CO2 incubator. […] The numbers of cells and numbers of colonies of the AH109A cells that had infiltrated beneath the mesothelial cell monolayer were counted in 10 places of 2-mm square divisions selected at random for 1 dish, and the mean values of the numbers obtained by calculating these counts per square centimeter were taken as an index of the tumor invasion activity. […]
# [1] = food intake, body weight gain and liver weight in hepatoma-bearing rats; type: in vivo, rat; details: for Body weight gain: mean ± SEM of 11 rats
# Description: Male Donryu rats of four weeks old were purchased from NRC Haruna, Gumma, Japan, and were preliminarily fed for 6 days in quintuple cages in a room with a controlled environment with light period of 8:00 to 20:00, room temperature of 22±1° C., and relative humidity of 60±5%. For the first 3 days, the animals were fed ad libitum with a stock pellet diet (CE-2; CLEA Japan, Tokyo), and for the next 3 days, they were fed a basal diet containing 20% milk casein (20C) (Table 1) ad libitum together with tap water in a glass container. Following the completion of this preparatory raising, the rats were divided into three groups (11 animals per group) with equal average body weights of the respective groups were equal, and 1.0×10^7 of AH109A cells suspended in PBS (−) were transplanted in the back of all the rats. From the time immediately after transplantation, in the respective experimental groups, the animals were fed the experimental diets shown in Table 2. During the experimental period, the body weight, food intake and solid tumor size (sum of length, width and height) were measured everyday. On the day that the animals were killed, animals were deprived of experimental diets at 9:00, but freely given water until they were killed 4 hours later. Blood was collected from carotid, and the liver and solid tumors were excised. The collected blood was allowed to stand for approximately 2 hours at room temperature, and then centrifuged for 10 minutes at 3000 rpm (1750×g), 4° C., to obtain serum. This blood serum was frozen and stored at −20° C. The livers and solid tumors were washed with physiological saline, blotted on filter paper, and weighed. Furthermore, feces from the 19th to 21st days after transplantation were collected, and these feces were frozen and stored at −20° C. for the measurement of the amounts of steroids excreted from the body.
smiles,measurement,setting,value
"O=C1OCC(Cc2cccc(O)c2)C1Cc1cccc(O)c1 (centres unmarked) [Enterolactone, enterolactone]",ENL concentration at which cell toxicity was seen in the M-cells of the invasion assay system,AH109A cells; M-cells in tumor invasion assay,≥ 25 µM
same,effect on tumor invasion of AH109A cells,"AH109A cells; in vitro, 24 hours on M-cell monolayer",dose-dependent inhibitory effect
same,body weight,[1]; 100 ppm ENL ingestion group versus control,significant increase
same,Body weight gain,[1]; diet 10 ppm,158 ± 8^a g/21 days
same,Body weight gain,[1]; diet 100 ppm,171 ± 4^b g/21 days
